The source made the active and inactive calls.
What was measured:
[1] = biological target: Sphingosine 1-phosphate receptor 2 (Homo sapiens, UniProt O95136); test: Dose Response Cell Based Assay for Agonists of the S1P2 Receptor of Purchased Analogues. [Related pubchem assays: 729, 843, 854, 736 ]; assay type: functional
[2] = cells; assay type: functional, cell-based
[3] = test system: INS1; test: INS-1E survival protection against cytokine death – cell-based, luminescence, retest, dose response (AID 449756); assay type: functional; details: Rattus norvegicus;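 note: cell death triggered by IL-1 beta plus TNF-alpha plus IFN-gamma mixture; protective hits raise ATP signal compared with cytokine alone wells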
[4] = NIH-3T3 fibroblast cytotoxicity, dose response, cytotoxicity control, cell-based, fluorescence, Alamar Blue, secondary assay (AID 2327); assay type: functional;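 note: NIH-3T3 mouse fibroblasts cultured with fluconazole at 8 µg/mL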
[5] = cells; assay type: functional, cell-based; remark: listed apart in the source
[6] = fluconazole-exposed Candida albicans growth modulators – fluorescence, retest, confirmation (AID 2467); assay type: functional, cell-based
[7] = test system: Vero; test: mammalian cell viability reduction – secondary assay, cytotoxicity control for West Nile virus antiviral project, dose response (AID 1650); assay type: functional; details: Chlorocebus sabaeus
[8] = HepG2 cell cytotoxicity, dose response, cytotoxicity control for non-replicating M. tuberculosis project (AID 489018); assay type: functional; details: Mycobacterium tuberculosis
[9] = THP-1 cell cytotoxicity, dose response, cytotoxicity control for non-replicating M. tuberculosis project (AID 489025); assay type: functional
[10] = Vero E6 cell cytotoxicity, dose response, cytotoxicity control for non-replicating M. tuberculosis project, secondary assay (AID 492998); assay type: functional, VeroE6; details: Vero C1008
[11] = cells; assay type: functional
[12] = biological target: Bcl-2-like protein 1 (Homo sapiens, UniProt Q07817); test: blockers of BCLXL peptide binding – biochemical, fluorescence polarization, 1536-well, selectivity assay for MCL1 inhibitor project, dose response (AID 2218)
[13] = biological target: Genome polyprotein (Hepatitis C virus, UniProt Q2Q167); test: disruption of hepatitis C core self-association – biochemical, TR-FRET, dose response (AID 2159); set-up: species or system Hepacivirus hominis;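 note: blocks dimerization of HCV core protein measured by TR-FRET between tagged core106 pairs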
[14] = biological target: Induced myeloid leukemia cell differentiation protein Mcl-1 (Homo sapiens, UniProt Q07820); test: blockers of MCL1 binding to BIM peptide – biochemical, fluorescence polarization, BIM-BH3 peptide, 1536-well, dose response (AID 2217)
[15] = biological target: Galanin receptor type 2 (Homo sapiens, UniProt O43603); test: Dose Response cell-based high-throughput screening assay to identify antagonists of galanin receptor 2 (GALR2). [Related pubchem assays: 828, 866 ]; assay type: functional
[16] = loss of viability in HepG2 cells – cell-based, CellTiter-Glo, cherry-picked, cytotoxicity control for Shn3 inhibitor project, dose response (AID 624134); assay type: functional
[17] = non-specific 3'UTR reporter inhibition in Clone20-Shn3RL – cell-based, Renilla luciferase, cherry-picked, counter-screen for Shn3 inhibitor project, dose response (AID 624133); assay type: functional
[18] = biological target: T1, COUP transcription factor 2 (Homo sapiens, UniProt P24468); test: Luminescence-based cell-based high throughput dose response assay to identify inhibitors of COUP-TFII (NR2F2).; assay type: functional;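 note: HEK293 cells transiently cotransfected with COUP-TFII expression vector and reporter; luciferase reporter luminescence driven by COUP-TFII from the pX2-168 reporter plasmid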
T1 sequence (P24468 whole entry): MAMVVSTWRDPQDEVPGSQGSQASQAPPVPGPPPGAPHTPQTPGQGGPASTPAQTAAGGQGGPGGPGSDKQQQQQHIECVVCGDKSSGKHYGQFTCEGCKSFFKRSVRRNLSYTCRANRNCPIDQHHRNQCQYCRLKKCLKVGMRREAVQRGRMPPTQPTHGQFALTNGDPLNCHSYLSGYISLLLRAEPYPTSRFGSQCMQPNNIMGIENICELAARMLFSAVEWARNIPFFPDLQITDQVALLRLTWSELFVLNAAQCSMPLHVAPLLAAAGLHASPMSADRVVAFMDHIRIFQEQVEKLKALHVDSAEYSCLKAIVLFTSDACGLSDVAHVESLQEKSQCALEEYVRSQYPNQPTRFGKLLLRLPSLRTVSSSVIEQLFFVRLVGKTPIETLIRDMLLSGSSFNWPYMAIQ

[19] = reduction of Shn3 3'UTR-driven luciferase in osteoblasts – cell-based, Clone20 osteoblasts, firefly luciferase, cherry-picked, dose response (AID 624132); assay type: functional;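 note: firefly luciferase luminescence from reporter carrying the Shn3 3'UTR in osteoblasts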

Induced myeloid leukemia cell differentiation protein Mcl-1, sequence (Q07820 whole entry): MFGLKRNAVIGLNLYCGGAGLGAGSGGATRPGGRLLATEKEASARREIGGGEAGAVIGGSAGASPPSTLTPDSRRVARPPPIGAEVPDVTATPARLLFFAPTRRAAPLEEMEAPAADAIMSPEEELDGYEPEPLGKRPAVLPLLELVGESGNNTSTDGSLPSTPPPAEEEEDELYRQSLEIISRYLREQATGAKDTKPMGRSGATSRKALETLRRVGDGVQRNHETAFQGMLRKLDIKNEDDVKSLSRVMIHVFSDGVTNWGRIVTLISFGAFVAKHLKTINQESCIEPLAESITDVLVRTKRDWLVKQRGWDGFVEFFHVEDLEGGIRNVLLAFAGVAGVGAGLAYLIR
Genome polyprotein, sequence (Q2Q167 whole entry): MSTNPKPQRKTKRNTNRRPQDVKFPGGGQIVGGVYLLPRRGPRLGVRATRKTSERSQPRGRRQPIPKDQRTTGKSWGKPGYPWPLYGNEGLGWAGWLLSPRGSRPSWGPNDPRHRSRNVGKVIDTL
Galanin receptor type 2, sequence (O43603 whole entry): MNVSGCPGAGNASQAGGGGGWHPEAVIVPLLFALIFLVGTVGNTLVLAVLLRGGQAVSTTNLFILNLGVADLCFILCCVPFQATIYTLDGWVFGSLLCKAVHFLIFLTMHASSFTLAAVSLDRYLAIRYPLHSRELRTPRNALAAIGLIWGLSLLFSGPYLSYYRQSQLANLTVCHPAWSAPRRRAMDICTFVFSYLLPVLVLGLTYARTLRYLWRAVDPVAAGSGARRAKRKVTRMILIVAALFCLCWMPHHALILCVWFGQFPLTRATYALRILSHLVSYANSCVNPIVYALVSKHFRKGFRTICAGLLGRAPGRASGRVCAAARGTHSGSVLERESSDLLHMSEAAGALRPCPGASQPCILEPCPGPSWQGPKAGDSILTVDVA
Bcl-2-like protein 1, sequence (Q07817 whole entry): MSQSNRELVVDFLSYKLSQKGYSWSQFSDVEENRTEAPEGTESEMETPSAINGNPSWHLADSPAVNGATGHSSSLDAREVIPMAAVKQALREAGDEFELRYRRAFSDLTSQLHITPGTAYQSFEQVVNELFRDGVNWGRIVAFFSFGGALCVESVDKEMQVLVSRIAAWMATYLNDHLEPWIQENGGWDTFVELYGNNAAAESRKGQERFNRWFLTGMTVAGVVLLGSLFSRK
Sphingosine 1-phosphate receptor 2, sequence (O95136 whole entry): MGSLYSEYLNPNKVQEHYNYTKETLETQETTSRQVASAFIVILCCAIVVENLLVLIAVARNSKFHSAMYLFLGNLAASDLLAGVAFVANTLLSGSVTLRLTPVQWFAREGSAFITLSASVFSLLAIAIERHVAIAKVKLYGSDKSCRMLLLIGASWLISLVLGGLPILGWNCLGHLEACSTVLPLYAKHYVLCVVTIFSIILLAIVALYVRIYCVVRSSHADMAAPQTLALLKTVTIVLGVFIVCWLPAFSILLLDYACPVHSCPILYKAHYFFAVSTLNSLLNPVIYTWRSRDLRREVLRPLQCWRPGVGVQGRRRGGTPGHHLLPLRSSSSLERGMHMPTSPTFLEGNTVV

In the case of `COc1ccc(NC(=O)CN(C)CC(=O)c2cc(C)n(Cc3ccccc3)c2C)cc1`, the EC50 [1] is reported as > 30 µM (not active).

With `O=C(N/N=C(\c1ccccc1)c1ccccn1)c1cccc([N+](=O)[O-])c1` the EC50 [2] was 4.64 µM (active), the AC50 [3] was 0.535 µM (active) and the EC50 [4] was 155 µM (inconclusive). The EC50 [5] was > 350 µM (not active), the EC50 [6] was 3.75 µM (active) and the CC50 [7] was 1.73 µM (active). For the same compound, the CC50 [8] was 6.88 µM (active), the CC50 [9] was 0.394 µM (active) and the CC50 [10] was 1.61 µM (active). For the same compound, the IC50 [11] was 1.06 µM (active).

For `COc1ccc(NC(=O)CN(C)C(=O)c2cc3c(s2)CCC3)cc1`, the IC50 [12] was > 109 µM (not active), the IC50 [13] was 42.6 µM (not active) and the IC50 [14] was 7.31 µM (active).

In the case of `CC(=O)c1c(C)[nH]c(C(=O)OCC(=O)Nc2ccc(Cl)cc2[N+](=O)[O-])c1C`, the IC50 [15] is reported as > 42 µM (not active), the AC50 [3] is reported as 1.98 µM (active) and the AC50 [16] is reported as 53.2 µM (active). The AC50 [17] was 13.6 µM (active), the IC50 [18] was 6.5 µM (active) and the AC50 [19] was 0.325 µM (active).

Source: ChEMBL document CHEMBL1201862, “PubChem BioAssay data set” (2004)
